From patent US9279806B2, “Water-soluble AIE luminogens for monitoring and retardation of fibrillation of amyloid proteins” (THE HONG KONG UNIVERSITY OF SCIENCE AND TECHNOLOGY, priority 2005, dated 2016)

Assays:
lysozyme = test: FL during lysozyme fibril formation; conditions: 10, 50 and 100 μM, over 4 days
[1] = system: heparin, apoferritin, cellulose, papain, native and fibrillar insulin; test: FL specificity against other protein monomers; conditions: protein 1.0 mg/mL
amyloid-β-peptide = amyloid-β-peptide (Homo sapiens, UniProt P05067); test: FL with amyloid-β-peptide before and after aging; conditions: 0.1 mg/mL amyloid-β-peptide, λex 350 nm
[2] = Photophysical properties in solution and aggregate states (AIE effect); assay type: physicochemical; conditions: for Emission maximum wavelength (λem): excitation 350 nm
[3] = target: Bovine serum albumin (BSA) (Bos taurus, UniProt P02769); test: Fluorimetric titration of BSA to polyenes; assay type: binding
Protocol: Fluorimetric titration of biomacromolecules to polyenes Bovine serum albumin (BSA) and calf thymus DNA (ctDNA) were selected as model proteins and DNA. BSA was dissolved in a pH 7.0 phosphate buffer solution (1.0 mg/ml). DNA was dissolved in deionized water (1.0 mg/ml) and filtered through a 0.45 μm filter. The actual concentration (in nucleic base) was determined by UV photometry using the extinction coefficient ε260=6600 M^−1 cm^−1.
Stock solutions of polyenes were 5×10^−4 M in water. Fluorescence titration was carried out by sequentially adding 100 μl aliquots of DNA or BSA solutions to a 100 μl stock solution of polyenes, followed by adding an aqueous phosphate buffer (10 mM, pH 7) to acquire a 10.00 ml solution. The mixtures were stirred for half an hour prior to taking their spectra.
Complexation of the water-soluble AIE TPEs 3 and 4 with calf thymus DNA (ctDNA) and bovine serum albumin (BSA) were investigated by spectrometric titrations in aqueous phosphate buffer (pH=7.0) at 25 C. Stock solutions of TPEs 3 and 4 (0.25 mM) were prepared.

[4] = aggregate: 99% water/AN for TPE-OMe and TPE-OH, 99% AN/water for TPE-SO3
[5] = solution: acetonitrile for TPE-OMe and TPE-OH (10 μM), water for TPE-SO3 (5 μM)

Chain of Bovine serum albumin (BSA) (P02769 25-607): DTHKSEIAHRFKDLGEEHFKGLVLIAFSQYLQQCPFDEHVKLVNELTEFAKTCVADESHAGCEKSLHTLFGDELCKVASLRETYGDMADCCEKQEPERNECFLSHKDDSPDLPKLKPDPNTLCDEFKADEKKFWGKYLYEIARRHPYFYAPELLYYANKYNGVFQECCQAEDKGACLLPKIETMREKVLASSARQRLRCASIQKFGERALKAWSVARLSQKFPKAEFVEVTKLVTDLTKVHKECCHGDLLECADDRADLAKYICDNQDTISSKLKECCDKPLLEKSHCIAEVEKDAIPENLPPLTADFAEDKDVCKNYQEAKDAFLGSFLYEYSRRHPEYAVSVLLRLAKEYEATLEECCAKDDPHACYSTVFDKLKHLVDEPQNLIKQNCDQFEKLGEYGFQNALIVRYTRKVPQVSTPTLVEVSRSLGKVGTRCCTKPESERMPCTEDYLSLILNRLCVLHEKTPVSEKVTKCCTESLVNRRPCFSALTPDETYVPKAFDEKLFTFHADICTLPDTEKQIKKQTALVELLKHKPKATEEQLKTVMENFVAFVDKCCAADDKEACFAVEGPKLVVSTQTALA
Chain of amyloid-β-peptide (P05067 672-711 limits assumed): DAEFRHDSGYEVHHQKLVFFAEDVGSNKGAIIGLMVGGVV

## 1,2-Diphenyl-1,2-bis(4,4′-(3-sulfonato)propoxyl)phenylethylene [TPE-SO3]
lysozyme
  Fluorescence profile during lysozyme fibril formation: produces fluorescence profile corresponding to lysozyme fibrillation
[1]
  FL with fibrillar insulin: significantly higher than other cellular proteins tested
  FL with heparin, apoferritin and cellulose: comparable to TPE-SO3 solution alone
  FL with papain: comparable to native insulin monomer
amyloid-β-peptide
  Emission on formation of amyloid-β-peptide fibrils (after aging): increases dramatically
[2]; [4]
  ΦE (quantum yield), aggr: 17.47%
  λab (absorption maximum), aggr: 320 nm
  Emission maximum wavelength (λem): 442 nm
[2]; [5]
  ΦE (quantum yield), soln: 0.37%
  λab (absorption maximum), soln: 312 nm
  Emission maximum wavelength (λem): 398 nm
[3]; BSA solution of TPE-OH•Na2 or TPE-SO3 in aqueous phosphate buffer pH 7.0
  ΦE (quantum yield), bind: 58.2%
[3]; BSA solution of TPE-OH•Na2 or TPE-SO3 in aqueous phosphate buffer pH 7.0, excitation 350 nm
  λex (emission maximum), bind: 472 nm
[3]; aqueous phosphate buffer, 472 nm
  FL intensity increase upon binding with BSA: up to 240 times
